Test results from US11098035B2, “Compounds, compositions, and methods for increasing CFTR activity” (Proteostasis Therapeutics, Inc., priority 2014, dated 2021).
Where a name gives a salt, the structure may show the parent alone.

Columns and labels:
[1] = target: T1, ΔF508-CFTR (Homo sapiens, UniProt P13569, DEL508-508); assay: hBE Equivalent Current (Ieq) Assay; type: cell-based; conditions: AUC of equivalent chloride current, primary lung epithelial cells homozygous for ΔF508, 24 h treatment
T1 construct: Primary lung epithelial cells homozygous for the Cystic Fibrosis-causing ΔF508 mutation were differentiated for a minimum of 4 weeks; endogenous in cells; host or cells: primary human bronchial (lung) epithelial cells (hBE) homozygous for ΔF508, differentiated at an air-liquid interface
T1 sequence (P13569 with tags, fused parts or gaps DEL508-508): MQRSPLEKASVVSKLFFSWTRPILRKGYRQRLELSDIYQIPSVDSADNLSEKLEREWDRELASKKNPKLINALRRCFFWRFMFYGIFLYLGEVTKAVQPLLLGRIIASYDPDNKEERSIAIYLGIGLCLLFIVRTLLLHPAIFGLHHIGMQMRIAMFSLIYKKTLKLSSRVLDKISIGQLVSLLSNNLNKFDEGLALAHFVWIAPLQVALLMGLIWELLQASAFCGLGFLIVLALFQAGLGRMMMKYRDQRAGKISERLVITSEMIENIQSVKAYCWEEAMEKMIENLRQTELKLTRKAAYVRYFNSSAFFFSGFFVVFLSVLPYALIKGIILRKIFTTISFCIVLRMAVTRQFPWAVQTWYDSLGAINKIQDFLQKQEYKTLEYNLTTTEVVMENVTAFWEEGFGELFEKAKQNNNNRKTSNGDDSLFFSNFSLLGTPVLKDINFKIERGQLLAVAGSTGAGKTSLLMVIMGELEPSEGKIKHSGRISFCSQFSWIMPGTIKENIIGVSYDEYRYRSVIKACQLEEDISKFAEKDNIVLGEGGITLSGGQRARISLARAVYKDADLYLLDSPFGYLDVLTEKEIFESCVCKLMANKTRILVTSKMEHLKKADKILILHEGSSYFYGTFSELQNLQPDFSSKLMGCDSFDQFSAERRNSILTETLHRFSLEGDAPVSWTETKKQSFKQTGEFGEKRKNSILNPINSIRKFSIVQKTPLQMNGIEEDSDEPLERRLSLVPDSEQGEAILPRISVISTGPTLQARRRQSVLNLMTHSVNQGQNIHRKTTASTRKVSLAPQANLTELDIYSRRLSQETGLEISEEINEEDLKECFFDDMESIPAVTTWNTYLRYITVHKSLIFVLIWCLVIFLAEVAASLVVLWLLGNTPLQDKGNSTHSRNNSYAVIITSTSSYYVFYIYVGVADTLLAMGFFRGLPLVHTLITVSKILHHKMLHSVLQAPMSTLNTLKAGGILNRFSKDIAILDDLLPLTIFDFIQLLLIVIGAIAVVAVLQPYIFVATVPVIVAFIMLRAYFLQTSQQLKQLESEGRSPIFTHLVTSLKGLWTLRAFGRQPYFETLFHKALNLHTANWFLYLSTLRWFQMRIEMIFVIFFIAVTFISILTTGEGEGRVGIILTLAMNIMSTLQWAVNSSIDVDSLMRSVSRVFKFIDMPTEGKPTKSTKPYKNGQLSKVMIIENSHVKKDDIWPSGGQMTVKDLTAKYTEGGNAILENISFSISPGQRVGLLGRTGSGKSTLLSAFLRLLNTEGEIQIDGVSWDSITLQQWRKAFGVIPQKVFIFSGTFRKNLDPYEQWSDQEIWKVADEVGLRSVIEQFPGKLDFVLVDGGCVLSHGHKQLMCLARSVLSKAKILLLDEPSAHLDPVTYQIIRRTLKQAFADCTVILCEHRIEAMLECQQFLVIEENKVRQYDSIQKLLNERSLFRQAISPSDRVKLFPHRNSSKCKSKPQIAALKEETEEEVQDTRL
Method: Primary lung epithelial cells homozygous for the Cystic Fibrosis-causing ΔF508 mutation were differentiated for a minimum of 4 weeks in an air-liquid interface on Costar 24 well HTS filter plates prior to the equivalent current (Ieq) measurements. Cells were apically mucus-washed for 30 minutes 24 h prior to treatment with compounds. The basolateral media was removed and replaced with media containing the compound of interest diluted to its final concentration from DMSO stocks. Treated cells were incubated at 37° C. and 5% CO2 for 24 hours. At the end of the treatment period, the media was changed to the Ieq experimental solution for 30 minutes before the experiment and plates are maintained in a CO2-free incubator during this period. The plates containing the cells were then placed in pre-warmed heating blocks at 36° C.±0.5 for 15 minutes before measurements are taken. The transepithelial voltage (VT) and conductance (GT) were measured using a custom 24 channel current clamp (TECC-24) with 24 well electrode manifold. The Ieq assay measurements were made following additions with standardized time periods: • 1. The baseline VT and GT values were measured for approximately 20 minutes. • 2. Benzamil was added to block ENaC for 15 minutes. • 3. Forskolin plus VX-770 were added to maximally activate ΔF508-CFTR for 27 minutes. • 4. Bumetanide was added to inhibit the NaK2Cl cotransporter and shut-off secretion of chloride.
The activity data captured was the area under the curve (AUC) for the traces of the equivalent chloride current. The AUC was collected from the time of the forskolin/VX-770 addition until the inhibition by bumetanide addition. Correction in response to compound treatment was scored as the increase in the AUC for compound-treated samples over that of vehicle-treated samples.
The results are shown below in Table 2. ++ indicates activity ≥25% run at 10 uM of VX-809 at 1 uM, + indicates activity 10 to <25% run at 10 uM of VX-809 at 1 uM, **indicates activity ≥200% of VX-809 (1 uM) with compound at 10 uM and VX-809 at 1 uM; * indicates activity 100-200% of VX-809 (1 uM) with compound at 10 uM and VX-809 at 1 uM. ^## indicates activity ≥200% of VX-809 (3 uM) with compound at 10 uM and VX-809 at 3 uM; ^# indicates activity 100-200% of VX-809 (3 uM) with compound at 10 uM and VX-809 at 3 uM.

[2] = target: T1, ΔF508-CFTR; assay: Ussing Measurements; type: cell-based; conditions: compound at 10 uM and VX-809 at 3 uM, activity as % of VX-809 (3 uM); CFTRinh-172 inhibitable short-circuit current; hBEs homozygous for ΔF508, 24 h treatment
Method: As discussed above, Ussing measurements are used to measure CFTR activity. In this method, primary lung epithelial cells (hBEs) homozygous for the Cystic Fibrosis-causing ΔF508 mutation are differentiated for a minimum of 4 weeks in an air-liquid interface on SnapWell filter plates prior to the Ussing measurements. Cells are apically mucus-washed for 30 minutes prior to treatment with compounds. The basolateral media is removed and replaced with media containing the compound of interest diluted to its final concentration from DMSO stocks. Treated cells are incubated at 37° C. and 5% CO2 for 24 hours. […] The short-circuit current is measured in voltage clamp-mode (Vhold=0 mV), and the entire assay is conducted at a temperature of 36° C.-36.5° C. Once the voltages stabilized, the chambers are clamped, and data is recorded by pulse readings every 5 seconds. Following baseline current stabilization, the following additions can be applied and the changes in current and resistance of the cells can be monitored: • 1. […]
The inhibitable current (that current that is blocked by CFTRinh-172) is measured as the specific activity of the ΔF508-CFTR channel, and increases in response to compound in this activity over that observed in vehicle-treated samples are identified as the correction of ΔF508-CFTR function imparted by the compound tested. […]

[3] = compound at 10 uM and VX-809 at 1 uM, activity as % of VX-809 (1 uM)

For `C[C@@H](O)c1nnc(C2CC(NC(=O)c3cc(-c4ccccc4)no3)C2)o1` (some centres unmarked) [Example 6], the Ieq [1, 3] was “* (* indicates activity 100-200% of VX-809 (1 uM) with compound at 10 uM and VX-809 at 1 uM)” and the Ussing [2] was “## (^## indicates activity ≥200% of VX-809 (3 uM) with compound at 10 uM and VX-809 at 3 uM)”.

`O=C(NC1CC(n2nncc2CO)C1)c1cc(-c2ccccc2)no1` (stereo not drawn) [Example 5, N-trans-3-(5-(hydroxymethyl)-1H-1,2,3-triazol-1-yl)cyclobutyl)-3-phenylisoxazole-5-carboxamide] was tested, and the Ussing [2] was “## (^## indicates activity ≥200% of VX-809 (3 uM) with compound at 10 uM and VX-809 at 3 uM)”.

`CN1CC(c2nnc([C@H]3C[C@H](NC(=O)c4cc(-c5ccccc5)no4)C3)o2)C1` [Example 21, N-(trans-3-(5-(1-methylazetidin-3-yl)-1,3,4-oxadiazol-2-yl)cyclobutyl)-3-phenylisoxazole-5-carboxamide trifluoroacetate] was tested, and the Ieq [1, 3] was “* (* indicates activity 100-200% of VX-809 (1 uM) with compound at 10 uM and VX-809 at 1 uM)”.

`O=C(N[C@H]1C[C@H](c2nnc(C3CS(=O)(=O)C3)o2)C1)c1cc(-c2ccccc2)no1` [Example 23, N-(trans-3-(5-(1,1-dioxidothietan-3-yl)-1,3,4-oxadiazol-2-yl)cyclobutyl)-3-phenylisoxazole-5-carboxamide] was tested, and the Ieq [1, 3] was “* (* indicates activity 100-200% of VX-809 (1 uM) with compound at 10 uM and VX-809 at 1 uM)”.

`O=C(N[C@H]1C[C@H](c2nnc(C3CN(CC4CCC4)C3)o2)C1)c1cc(-c2ccccc2)no1` [Example 27, N-(trans-3-(5-(1-(cyclobutylmethyl)azetidin-3-yl)-1,3,4-oxadiazol-2-yl)cyclobutyl)-3-phenylisoxazole-5-carboxamide] was tested, and the Ieq [1, 3] was “* (* indicates activity 100-200% of VX-809 (1 uM) with compound at 10 uM and VX-809 at 1 uM)”.

`C[C@H](O)c1cn(C[C@H]2C[C@@H](NC(=O)c3cc(-c4ccccc4)no3)C2)nn1` [Example 58, 3-Phenyl-N-[(1s,3s)-3-([4-[(1S)-1-hydroxyethyl]-1H-1,2,3-triazol-1-yl]methyl)cyclobutyl]-1,2-oxazole-5-carboxamide] was tested, and the Ieq [1, 3] was “* (* indicates activity 100-200% of VX-809 (1 uM) with compound at 10 uM and VX-809 at 1 uM)”.

With `C[C@@H](O)c1nnc([C@H]2C[C@H](NC(=O)c3cc(-c4ccc(F)cc4)no3)C2)o1` [Example 36, 3-(4-fluorophenyl)-N-(trans-3-(5-((R)-1-hydroxyethyl)-1,3,4-oxadiazol-2-yl)cyclobutyl)isoxazole-5-carboxamide] the Ieq [1, 3] was “* (* indicates activity 100-200% of VX-809 (1 uM) with compound at 10 uM and VX-809 at 1 uM)”.

For `O=C(N[C@H]1C[C@@H](n2nncc2CO)C1)c1cc(-c2ccccc2)no1` [Example 28, N-(cis-3-(5-(hydroxymethyl)-1H-1,2,3-triazol-1-yl)cyclobutyl)-3-phenylisoxazole-5-carboxamide], the Ieq [1, 3] was “** (**indicates activity ≥200% of VX-809 (1 uM) with compound at 10 uM and VX-809 at 1 uM)”.

For `C[C@@H](O)c1nnc(C[C@H]2C[C@@H](NC(=O)c3cc(-c4ccccc4)no3)C2)s1` [Example 41, 3-Phenyl-N-[(1s,3s)-3-([5-[(1R)-1-hydroxyethyl]-1,3,4-thiadiazol-2-yl]methyl)cyclobutyl]-1,2-oxazole-5-carboxamide], the Ieq [1, 3] was “** (**indicates activity ≥200% of VX-809 (1 uM) with compound at 10 uM and VX-809 at 1 uM)”.

For `O=C(N[C@H]1C[C@@H](n2cc(CO)nn2)C1)c1cc(-c2ccccc2)no1` [Example 29, N-(cis-3-(4-(hydroxymethyl)-1H-1,2,3-triazol-1-yl)cyclobutyl)-3-phenylisoxazole-5-carboxamide], the Ieq [1, 3] was “** (**indicates activity ≥200% of VX-809 (1 uM) with compound at 10 uM and VX-809 at 1 uM)”.

`CC(OCC(F)(F)F)c1nnc(C2CC(NC(=O)c3cc(-c4ccccc4)no3)C2)o1` (single isomer, unassigned) [Example 15] was tested, and the Ieq [1, 3] was “* (* indicates activity 100-200% of VX-809 (1 uM) with compound at 10 uM and VX-809 at 1 uM)”.

For `C[C@@H](O)c1nnc(C[C@H]2C[C@H](NC(=O)c3cc(-c4cccs4)no3)C2)o1` [Example 46, N-[(1r,3r)-3-([5-[(1R)-1-Hydroxyethyl]-1,3,4-oxadiazol-2-yl]methyl)cyclobutyl]-3-(thiophen-2-yl)-1,2-oxazole-5-carboxamide], the Ieq [1, 3] was “* (* indicates activity 100-200% of VX-809 (1 uM) with compound at 10 uM and VX-809 at 1 uM)”.

In the case of `COCCNC(=O)c1cc(-c2ccccc2)co1` [Example 8, N-(2-methoxyethyl)-4-phenylfuran-2-carboxamide], the Ieq ([1]; compound run at 10 uM, activity relative to VX-809 at 1 uM) is reported as “+ (+ indicates activity 10 to <25% run at 10 uM of VX-809 at 1 uM)”.
